Experimental data: US9925263B2, “Liquid pharmaceutical formulations for injection comprising procaine and uses thereof” (EAGLE BIOLOGICS, INC., priority 2013, dated 2018)

Key:
[1] = tested on: REMICADE®; test: Viscosity of aqueous solutions of […]® with viscosity-lowering agents; type: physicochemical
[2] = tested on: antigen; test: Antigen binding, […]®-specific ELISA assay; details: storage at room temperature, CSAA sample: REMICADE 219 mg/mL, pH 7, 0.25M CSAA
Method: Biophysical properties of solutions of […]® formulated with 0.25 M CSAA were assessed over 90 days. Samples of […]® formulated with 0.25 M CSAA were prepared as described in Example 1 above. […] (Table 20). Additionally, antigen binding of this processed […]® protein was measured with a […]®-specific ELISA assay and no decrease in binding was seen between days 0 and […] (Table 20).

[3] = tested on: ARZERRA®; test: Viscosity of aqueous solutions of ARZERRA® with viscosity-lowering agents; type: physicochemical; details: 274 ± 10 mg/mL ARZERRA; 0.25M agent; 25° C., pH 7.0
Source text: (§1) (unless otherwise indicated).

[4] = tested on: biosimilar AVASTIN®; test: Viscosity of aqueous solutions of biosimilar AVASTIN® with viscosity-lowering agents; type: physicochemical
[5] = tested on: VECTIBIX®; test: Viscosity of aqueous solutions of VECTIBIX® with viscosity-lowering agents; type: physicochemical; details: 0.25M agent, 25° C., pH 7.0
Source text: as §1

[6] = tested on: REMICADE®; test: Monomer content of […]® solutions by size exclusion chromatography; type: physicochemical; details: 0.25M agent
Method: Biophysical properties of solutions of […]® formulated with 0.25 M CSAA were assessed over 90 days. Samples of […]® formulated with 0.25 M CSAA were prepared as described in Example 1 above.
(§2) Following reconstitution, the viscosity of each solution was measured using the microfluidic viscometer as described in previous examples. The solutions were then back-loaded into 1 mL BD insulin syringes with 27, 29, or 31 gauge fixed needles. The force required to extrude the concentrated […]® solutions was then measured using an Instron at a rate of displacement equivalent to a fluid flow rate of 3 mL/min. The expelled solution was collected from the syringe and analyzed by size-exclusion chromatography.

[7] = tested on: biosimilar RITUXAN®; test: Viscosity of aqueous solutions of biosimilar RITUXAN® with viscosity-lowering agents; details: 202 ± 2 mg/mL RITUXAN; 0.25M agent; 25° C., pH 7.0;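 note: absolute viscosity of aqueous antibody solutions determined by microfluidic viscometry (mVROC chip, 50 micron channel) at several flow rates after 5 min equilibration, mean of at least three readings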
[8] = tested on: REMICADE®; test: Monomer content of […]® solutions by size exclusion chromatography; type: physicochemical; details: storage at room temperature, CSAA sample: REMICADE 219 mg/mL, pH 7, 0.25M CSAA
[9] = tested on: Sprague-Dawley rats; test: Subcutaneous injection toxicity and irritation (Draize evaluation scores); type: in vivo, rat; details: 0.5 mL of 0.25 M CSAA subcutaneously, 1 to 3 daily injections
Method: Thirty 11-week old Sprague-Dawley rats were separated into 6 groups of 5 rats each (3 saline control groups and 3 CSAA groups). The rats were injected subcutaneously with 0.5 mL of either endotoxin-free phosphate-buffered saline or endotoxin-free 0.25 M CSAA according to the following schedule: One group from each condition was injected once on day 1 and then sacrificed […]; one group from each condition was injected once on day 1 and once on day 2 and then sacrificed 24 hours after the second injection; and one group from each condition was injected once on day 1, once on day 2, and once on day 3, and then sacrificed 24 hours after the third injection.
Clinical observations were recorded for any pharmaco-toxicological signs pre-dose, immediately post-dose, at 1 and 4 hours (±15 minutes) post-dose, and daily thereafter. Irritation, if any, at injection sites was scored using the Draize evaluation scores pre-dose, immediately post-dose, at 1 hour (±15 minutes) post dose, and prior to sacrifice.

[10] = tested on: biosimilar ERBITUX®; test: Viscosity of aqueous solutions of biosimilar ERBITUX® with viscosity-lowering agents; details: for Viscosity / Fold Reduction: pH 7.0, 0.25M agent; for Fold Reduction: vs phosphate buffer
[11] = tested on: HERCEPTIN®; test: Viscosity of aqueous solutions of HERCEPTIN® with viscosity-lowering agents; type: physicochemical; details: 0.25M salt, 25° C., pH 7.0
Method: All viscosities of well-mixed aqueous mAb solutions were measured using either a mVROC microfluidic viscometer (RheoSense) or a DV2T cone and plate viscometer (Brookfield; “C & P”) after a 5 minute equilibration at 25° C. (unless otherwise indicated). The mVROC viscometer was equipped with an “A” or “B” chip, each manufactured with a 50 micron channel. Typically, 0.10 mL of protein solution was back-loaded into a gastight microlab instrument syringe (Hamilton; 100 μL), affixed to the chip, and measured at multiple flow rates, approximately 20%, 40%, and 60% of the maximum pressure for each chip. […] An average absolute viscosity and standard deviation was then calculated from at least these three measurements. The C & P viscometer was equipped with a CPE40 or CPE52 spindle (cone angle of 0.8° and 3.0°, respectively) and 0.50 mL samples were measured at multiple shear rates between 2 and 400 s^−1. Specifically, samples were measured for 30 seconds each at 22.58, 24.38, 26.25, 28.13, 30, 31.88, 45, 67.5, 90, 112.5, 135, 157.5, 180, 202.5, 247, 270, 292.5, 315, 337.5, 360, 382, 400 s^−1, starting at a shear rate that gave at least 10% torque, and continuing until instrument torque reached 100%. An extrapolated zero-shear viscosity was then determined from a plot of dynamic viscosity versus shear rate for the samples measured on a DV2T cone and plate viscometer. The extrapolated zero-shear viscosities reported are the average and standard deviation of at least three measurements.
(§3) Viscosities were measured using a RheoSense mVROC microfluidic viscometer equipped with an “A” or “B” chip.
Viscosities reported were measured on a RheoSense mVROC microfluidic viscometer.

[12] = tested on: REMICADE®; test: Syringe extrusion force of concentrated […]® solutions (Instron); type: physicochemical; details: 1 mL BD insulin syringe, 3 mL/min, REMICADE 224-230 mg/mL, 0.25M agent
Method: as §2

[13] = tested on: TYSABRI®; test: Viscosity of aqueous solutions of TYSABRI® with viscosity-lowering agents; type: physicochemical; details: 0.25M agent, 25° C., pH 7.0
Method: All viscosities of well-mixed aqueous mAb solutions were measured using either a mVROC microfluidic viscometer (RheoSense) or a DV2T cone and plate viscometer (Brookfield; “C & P”) after a 5 minute equilibration at 25° C. […] The mVROC viscometer was equipped with an “A” or “B” chip, each manufactured with a 50 micron channel. Typically, 0.10 mL of protein solution was back-loaded into a gastight microlab instrument syringe (Hamilton; 100 μL), affixed to the chip, and measured at multiple flow rates, approximately 20%, 40%, and 60% of the maximum pressure for each chip. […] An average absolute viscosity and standard deviation was then calculated from at least these three measurements. The C & P viscometer was equipped with a CPE40 or CPE52 spindle (cone angle of 0.8° and 3.0°, respectively) and 0.50 mL samples were measured at multiple shear rates between 2 and 400 s^−1. Specifically, samples were measured for 30 seconds each at 22.58, 24.38, 26.25, 28.13, 30, 31.88, 45, 67.5, 90, 112.5, 135, 157.5, 180, 202.5, 247, 270, 292.5, 315, 337.5, 360, 382, 400 s^−1, starting at a shear rate that gave at least 10% torque, and continuing until instrument torque reached 100%. An extrapolated zero-shear viscosity was then determined from a plot of dynamic viscosity versus shear rate for the samples measured on a DV2T cone and plate viscometer. The extrapolated zero-shear viscosities reported are the average and standard deviation of at least three measurements.
as §3
Subsequently, the aqueous drug product was purified, buffer exchanged, concentrated, dried, reconstituted, and analyzed as described in the same manner. Viscosities reported were measured on a RheoSense mVROC microfluidic viscometer.

camphorsulfonic acid arginine [CSAA]
Viscosity ([1]; 128 mg/mL REMICADE, isotonic (0.3 molal) excipient): 25.8 ± 0.8 cP | Viscosity reduction ([1]; 0.25M agent vs PB, Table 17): about 29 fold | Viscosity ([1]; 166 ± 4 mg/mL REMICADE, 0.25M agent, 25° C., pH 7.0): 19.1 ± 0.2 cP | Viscosity ([1]; 215 ± 5 mg/mL REMICADE, [CSAA] 0 M, 25° C., pH 7.0): 1557 ± 22 cP | Viscosity ([1]; 215 ± 5 mg/mL REMICADE, [CSAA] 0.20 M, 25° C., pH 7.0): 81.3 ± 1.0 cP | Viscosity ([1]; 215 ± 5 mg/mL REMICADE, [CSAA] 0.25 M, 25° C., pH 7.0): 53.7 ± 9.3 cP | Viscosity ([1]; 215 ± 5 mg/mL REMICADE, [CSAA] 0.35 M, 25° C., pH 7.0): 38.2 ± 0.9 cP | Viscosity ([1]; 222 ± 6 mg/mL REMICADE, 0.25M agent, 25° C., pH 7.0): 53.7 ± 9.3 cP | % binding (normalized to drug product) ([2]; day 0): 88.6 ± 5.2% | % binding (normalized to drug product) ([2]; day 7): 114 ± 2.4% | Viscosity [3]: 125 ± 7 cP | Viscosity ([4]; 200 ± 5 mg/mL mAb, pH 7.0, 25° C., [Salt] 0.25 M of anion, C & P viscometer): 48.5 ± 1.9 cP | pH of minimum viscosity and maximum viscosity-lowering effect ([4]; 200±9 mg/mL mAb, 0.25 M CSAA, FIG. 3): ~7 | Viscosity ([4]; 228 ± 5 mg/mL mAb, agent 0.25 M, 25° C., pH 7.0): 116 ± 2 cP | Viscosity ([5]; 264 mg/mL VECTIBIX): 44.3 ± 2.3 cP | Viscosity ([5]; 233 ± 4 mg/mL VECTIBIX): 26.2 ± 6.5 cP | Viscosity ([5]; 252 ± 3 mg/mL VECTIBIX): 27.4 ± 1.2 cP | Viscosity ([5]; 291 ± 3 mg/mL VECTIBIX): 162 ± 1 cP | % Monomer ([6]; expelled through 27 gauge needle, REMICADE 224-230 mg/mL (per agent)): 99.5 ± 0.1% | % Monomer ([6]; expelled through 29 gauge needle, REMICADE 224-230 mg/mL (per agent)): 99.4 ± 0.2% | % Monomer ([6]; expelled through 31 gauge needle, REMICADE 224-230 mg/mL (per agent)): 99.5 ± 0.2% | % Monomer ([6]; pre-syringe, REMICADE 220-230 mg/mL (per agent)): 99.7 ± 0.3% | Viscosity [7]: 78.4 ± 0.3 | % Monomer ([8]; day 0): 99.9 ± 0.1% | % Monomer ([8]; day 4): 97.9 ± 0% | % Monomer ([8]; day 7): 100 ± 0% | Microscopic examination of injection sites ([9]; no longer evident by day 4): very minor, clinically insignificant, irritative effect | Observed consequences of the injections compared with saline ([9]; throughout the study): macroscopically similar | Edema scores (Draize) at injection sites ([9]; various time points): 0-2 | pH of viscosity minimum ([10]; 0.25 M CSAA, 202±5, 229±5, 253±4 mg/mL mAb, 25° C., FIG. 5): ~7.0 | Viscosity ([10]; 222 ± 5 mg/mL mAb, 25° C.): 52.5 ± 1.0 cP | Viscosity ([10]; 225 ± 5 mg/mL mAb, 20° C.): 79.6 ± 0.9 cP | Viscosity ([10]; 225 ± 5 mg/mL mAb, 25° C.): 58.0 ± 0.3 cP | Viscosity ([10]; 225 ± 5 mg/mL mAb, 30° C.): 46.9 ± 0.6 cP | Fold Reduction ([10]; 222 ± 5 mg/mL mAb, 25° C.): 21.5 fold | Fold Reduction ([10]; 222 ± 5 mg/mL mAb, 25° C., listed as CSA Arginine): 21.5 fold | Viscosity ([11]; 216 ± 0 mg/mL HERCEPTIN): 55.7 ± 2.3 cP | Viscosity ([11]; 254 ± 3 mg/mL HERCEPTIN): 78.0 ± 8.7 cP | Viscosity ([11]; 270 ± 6 mg/mL HERCEPTIN): 96.7 ± 4.7 cP | Syringe Force ([12]; 27 gauge needle): 18.4 N | Syringe Force ([12]; 29 gauge needle): 24.9 N | Syringe Force ([12]; 31 gauge needle): 33.0 N | Viscosity ([13]; 237 ± 4 mg/mL TYSABRI): 47.1 ± 2.1 cP | Viscosity ([13]; 276 ± 8 mg/mL TYSABRI): 92.9 ± 2.6 cP
